Measured values published in US20110224213A1, “Use of Glutaric Acid Derivatives or the Pharmaceutically Acceptable Salts Thereof as Anti-Arrhythmic Agents” (priority 2008, published 2011).
Where a name gives a salt, the structure may show the parent alone. Read-outs that look alike come from different tables or passages of the source. Marks after values point to notes of the source that are not given here.

Assays:
[1] = test system: adrenal arrhythmia in mice; type: in vivo
[2] = test system: aconitic arrhythmia in mice; assay: animal or person; type: in vivo
Experimental: Arrhythmia was reproduced according to the method of Ju. I. Vikhlyayev and N. V. Kaverina (1958) [Kaverina N. V., Berdyaev S. Ju., Kuschuk E. P., Paskhina O. E. Methodical indications in respect to a study of the anti-arrhythmic activity of new pharmacological substances. Manual on experimental (pre-clinical) study of new pharmacological substances. Edited by V. P. Fisenko.—Moscow. 2000. Page 210]. Aconitine nitrate was administered to the animals in a dose of 50 μg/kg intravenously.
(§1) This model makes it possible to assess the scope of the therapeutic action of the presented compounds and the N-succinyl-D,L-tryptophane dipotassium salt. Assessment of the scope of the therapeutic action was carried out in accordance with the value of the anti-arrhythmic index (AAI), determined as the ratio LD50 upon the oral method of administering to ED50 on an aconitic model of arrhythmia.

[3] = test system: occlusive arrhythmia in cats; assay: Early occlusive arrhythmia in cats (coronary artery ligation); settings: for effect on experimental lethality: 23% lethality in the control; for anti-arrhythmic effect: dose of 0.05 mg/kg, intravenous
[4] = LD50 upon oral administration in mice; settings: mouse, in vivo, per/os
Experimental: as §1

[5] = mice, dose 0.05 mg/kg, introduced internally
[6] = mice, dose 0.5 mg/kg, introduced internally
[7] = mice, 0.05 and 0.5 mg/kg, introduced internally

Structure (SMILES): O=C([O-])CCC(=O)NC(Cc1c[nH]c2ccccc12)C(=O)[O-].[K+].[K+] (racemic) [N-succinyl-D,L-tryptophane dipotassium salt, reference compound]
- Animals lethal (%) [1, 5]: (100%)
- Animals with AV blockage (%) [1, 5]: (43%)
- Animals with ventricular arrhythmia (%) [1, 5]: (43%)
- Lifetime [1, 5]: 16 ± 4 min
- Number of animals in groups lethal [1, 5]: 14
- Number of animals in groups with AV blockage [1, 5]: 6*
- Number of animals in groups with ventricular arrhythmia [1, 5]: 6*
- Animals lethal (%) [1, 6]: (100%)
- Animals with AV blockage (%) [1, 6]: (57%)
- Animals with ventricular arrhythmia (%) [1, 6]: (43%)
- Lifetime [1, 6]: 16 ± 4 min
- Number of animals in groups lethal [1, 6]: 14
- Number of animals in groups with AV blockage [1, 6]: 8
- Number of animals in groups with ventricular arrhythmia [1, 6]: 6*
- animals died after administration of the substance ([2]; per/os, dose of 50 mg/kg, mice): 50%
- test animals in which arrhythmia develops ([2]; per/os, interval of doses 0.05-5 mg/kg, mice): 71-100%
- effect on experimental lethality [3]: prevented experimental lethality
- Animals died in group ([3]; dose 0.05 mg/kg, intravenously): 0
- Animals with ventricular arrhythmia (%) ([3]; dose 0.05 mg/kg, intravenously): 50%
- Number of animals with ventricular arrhythmia ([3]; dose 0.05 mg/kg, intravenously): 3
- Time of occurrence of arrhythmia ([3]; dose 0.05 mg/kg, intravenously): 19 ± 3 min
- Animals died in group ([3]; dose 0.5 mg/kg, intravenously): 0
- Animals with ventricular arrhythmia (%) ([3]; dose 0.5 mg/kg, intravenously): 17%
- Number of animals with ventricular arrhythmia ([3]; dose 0.5 mg/kg, intravenously): 1
- Time of occurrence of arrhythmia ([3]; dose 0.5 mg/kg, intravenously): 21 min
- anti-arrhythmic effect [3]: did not demonstrate a reliable anti-arrhythmic effect

Structure (SMILES): O=C(O)CCCC(=O)N[C@@H](Cc1c[nH]c2ccccc12)C(=O)O [Compound II mono-sodium salt, mono-sodium salt N^α-glutaryl-L-tryptophane]
- effect on lethality of the test animals [1, 7]: statistically reliably reduced the lethality
- Animals lethal (%) [1, 5]: (50%)
- Animals with AV blockage (%) [1, 5]: (0%)
- Animals with ventricular arrhythmia (%) [1, 5]: (0%)
- Lifetime [1, 5]: 22 ± 3.4 min
- Number of animals in groups lethal [1, 5]: 7*
- Number of animals in groups with AV blockage [1, 5]: 0*
- Number of animals in groups with ventricular arrhythmia [1, 5]: 0*
- Animals lethal (%) [1, 6]: (50%)
- Animals with AV blockage (%) [1, 6]: (36%)
- Animals with ventricular arrhythmia (%) [1, 6]: (0%)
- Lifetime [1, 6]: 19 ± 2.8 min
- Number of animals in groups lethal [1, 6]: 7*
- Number of animals in groups with AV blockage [1, 6]: 5*
- Number of animals in groups with ventricular arrhythmia [1, 6]: 0*
- effect on ventricular ectopic complexes ([1]; mice, introduced internally): elimination of the ventricular ectopic complexes in all of the test animals

Structure (SMILES): O=C(O)CCCC(=O)N[C@@H](Cc1c[nH]c2ccccc12)C(=O)O [Compound II, N^α-glutaryl-L-tryptophane]
- Animals lethal (%) [1, 5]: (50%)
- Animals with AV blockage (%) [1, 5]: (0%)
- Animals with ventricular arrhythmia (%) [1, 5]: (0%)
- Lifetime [1, 5]: 22 ± 3.4 min
- Number of animals in groups lethal [1, 5]: 7*
- Number of animals in groups with AV blockage [1, 5]: 0*
- Number of animals in groups with ventricular arrhythmia [1, 5]: 0*
- Animals lethal (%) [1, 6]: (50%)
- Animals with AV blockage (%) [1, 6]: (29%)
- Animals with ventricular arrhythmia (%) [1, 6]: (0%)
- Lifetime [1, 6]: 19 ± 2.8 min
- Number of animals in groups lethal [1, 6]: 7*
- Number of animals in groups with AV blockage [1, 6]: 4*
- Number of animals in groups with ventricular arrhythmia [1, 6]: 0*
- Animals died in group ([3]; dose 0.05 mg/kg, intravenously): 1
- Animals died in group (%) ([3]; dose 0.05 mg/kg, intravenously): 14%
- Animals with ventricular arrhythmia (%) ([3]; dose 0.05 mg/kg, intravenously): 86%
- Number of animals with ventricular arrhythmia ([3]; dose 0.05 mg/kg, intravenously): 6
- Time of occurrence of arrhythmia ([3]; dose 0.05 mg/kg, intravenously): 17 ± 2 min
- Animals died in group ([3]; dose 0.5 mg/kg, intravenously): 0
- Animals with ventricular arrhythmia (%) ([3]; dose 0.5 mg/kg, intravenously): 29%
- Number of animals with ventricular arrhythmia ([3]; dose 0.5 mg/kg, intravenously): 2
- Time of occurrence of arrhythmia ([3]; dose 0.5 mg/kg, intravenously): 17 to 20 min

Structure (SMILES): O=C(O)CCCC(=O)N[C@@H](Cc1c[nH]cn1)C(=O)O [Compound III, N^α-glutaryl-L-histidine]
- effect on life span of the test animals [1, 7]: effectively increased the life span
- Animals lethal (%) [1, 5]: (86%)
- Animals with AV blockage (%) [1, 5]: (29%)
- Animals with ventricular arrhythmia (%) [1, 5]: (43%)
- Lifetime [1, 5]: 32 ± 7 min
- Number of animals in groups lethal [1, 5]: 12
- Number of animals in groups with AV blockage [1, 5]: 4*
- Number of animals in groups with ventricular arrhythmia [1, 5]: 6*
- Animals lethal (%) [1, 6]: (79%)
- Animals with AV blockage (%) [1, 6]: (21%)
- Animals with ventricular arrhythmia (%) [1, 6]: (29%)
- Lifetime [1, 6]: 33 ± 5 min
- Number of animals in groups lethal [1, 6]: 11
- Number of animals in groups with AV blockage [1, 6]: 3*
- Number of animals in groups with ventricular arrhythmia [1, 6]: 4*
- ED50 ([2]; Mus musculus, iv): 0.185 ± 0.083 mg/kg
- prevention of atrioventricular heart arrhythmia caused by aconitine nitrate ([2]; mice, administration internally): effectively prevents atrioventricular heart arrhythmia
- effect on experimental lethality [3]: prevented experimental lethality
- Animals died in group ([3]; dose 0.05 mg/kg, intravenously): 0
- Animals with ventricular arrhythmia (%) ([3]; dose 0.05 mg/kg, intravenously): 25%
- Number of animals with ventricular arrhythmia ([3]; dose 0.05 mg/kg, intravenously): 2
- Time of occurrence of arrhythmia ([3]; dose 0.05 mg/kg, intravenously): 18 ± 2 min
- Animals died in group ([3]; dose 0.5 mg/kg, intravenously): 0
- Animals with ventricular arrhythmia (%) ([3]; dose 0.5 mg/kg, intravenously): 17%
- Number of animals with ventricular arrhythmia ([3]; dose 0.5 mg/kg, intravenously): 1
- Time of occurrence of arrhythmia ([3]; dose 0.5 mg/kg, intravenously): 18 min
- anti-arrhythmic effect [3]: had reliable activity
- LD50 [4]: 4500 mg/kg

Structure (SMILES): O=C(O)CCCC(=O)NCCc1c[nH]cn1 [Compound IV, glutaryl histamine]
- Animals lethal (%) [1, 5]: (79%)
- Animals with AV blockage (%) [1, 5]: (21%)
- Animals with ventricular arrhythmia (%) [1, 5]: (29%)
- Lifetime [1, 5]: 24 ± 3 min
- Number of animals in groups lethal [1, 5]: 11
- Number of animals in groups with AV blockage [1, 5]: 3*
- Number of animals in groups with ventricular arrhythmia [1, 5]: 4*
- Animals lethal (%) [1, 6]: (100%)
- Animals with AV blockage (%) [1, 6]: (29%)
- Animals with ventricular arrhythmia (%) [1, 6]: (14%)
- Lifetime [1, 6]: 18 ± 0.8 min
- Number of animals in groups lethal [1, 6]: 14
- Number of animals in groups with AV blockage [1, 6]: 4*
- Number of animals in groups with ventricular arrhythmia [1, 6]: 2*
- effect on life span of the test animals ([1]; mouse, in vivo, 0.05 mg/kg): effectively increased the life span

Structure (SMILES): O=C(O)CCCC(=O)NCCc1ccncc1 [Compound IX]
- Animals lethal (%) [1, 5]: (80%)
- Animals with AV blockage (%) [1, 5]: (100%)
- Animals with ventricular arrhythmia (%) [1, 5]: (70%)
- Lifetime [1, 5]: 21 ± 6 min
- Number of animals in groups lethal [1, 5]: 8
- Number of animals in groups with AV blockage [1, 5]: 10
- Number of animals in groups with ventricular arrhythmia [1, 5]: 7
- Animals lethal (%) [1, 6]: (60%)
- Animals with AV blockage (%) [1, 6]: (50%)
- Animals with ventricular arrhythmia (%) [1, 6]: (20%)
- Lifetime [1, 6]: 32 ± 4 min
- Number of animals in groups lethal [1, 6]: 6*
- Number of animals in groups with AV blockage [1, 6]: 5
- Number of animals in groups with ventricular arrhythmia [1, 6]: 2*

Structure (SMILES): O=C(O)CCCC(=O)NCCc1c[nH]c2ccccc12 [Compound XIII mono-sodium salt]
- Animals lethal (%) [1, 5]: (43%)
- Animals with AV blockage (%) [1, 5]: (43%)
- Animals with ventricular arrhythmia (%) [1, 5]: (36%)
- Lifetime [1, 5]: 17 ± 4 min
- Number of animals in groups lethal [1, 5]: 6*
- Number of animals in groups with AV blockage [1, 5]: 6*
- Number of animals in groups with ventricular arrhythmia [1, 5]: 5*
- Animals lethal (%) [1, 6]: (36%)
- Animals with AV blockage (%) [1, 6]: (29%)
- Animals with ventricular arrhythmia (%) [1, 6]: (21%)
- Lifetime [1, 6]: 28 ± 9 min
- Number of animals in groups lethal [1, 6]: 5*
- Number of animals in groups with AV blockage [1, 6]: 4*
- Number of animals in groups with ventricular arrhythmia [1, 6]: 3*

Structure (SMILES): O=C(O)CCCC(=O)NCCc1ccccn1 [Compound X]
- Animals lethal (%) [1, 5]: (70%)
- Animals with AV blockage (%) [1, 5]: (70%)
- Animals with ventricular arrhythmia (%) [1, 5]: (60%)
- Lifetime [1, 5]: 13 ± 4 min
- Number of animals in groups lethal [1, 5]: 7*
- Number of animals in groups with AV blockage [1, 5]: 7
- Number of animals in groups with ventricular arrhythmia [1, 5]: 6*
- Animals lethal (%) [1, 6]: (70%)
- Animals with AV blockage (%) [1, 6]: (60%)
- Animals with ventricular arrhythmia (%) [1, 6]: (30%)
- Lifetime [1, 6]: 27 ± 6 min
- Number of animals in groups lethal [1, 6]: 7*
- Number of animals in groups with AV blockage [1, 6]: 6
- Number of animals in groups with ventricular arrhythmia [1, 6]: 3*

Structure (SMILES): CCCCc1oc2ccccc2c1C(=O)c1cc(I)c(OCCN(CC)CC)c(I)c1 [Cordaron, amiodaron, reference compound]
- Animals died in group ([3]; dose 1.0 mg/kg, intravenously): 0
- Animals with ventricular arrhythmia (%) ([3]; dose 1.0 mg/kg, intravenously): 40%
- Number of animals with ventricular arrhythmia ([3]; dose 1.0 mg/kg, intravenously): 4
- Time of occurrence of arrhythmia ([3]; dose 1.0 mg/kg, intravenously): 21 ± 6 min

Structure (SMILES): CC(C)NCC(O)COc1cccc2ccccc12 (stereo not drawn) [Propranolol, propranolol, reference compound]
- Animals with AV blockage (%) ([1]; mouse, in vivo, 0.1 mg/kg): (36%)
- Animals with ventricular arrhythmia (%) ([1]; mouse, in vivo, 0.1 mg/kg): (29%)
- Lifetime ([1]; mouse, in vivo, 0.1 mg/kg): 20 ± 4 min
- Number of animals in groups with AV blockage ([1]; mouse, in vivo, 0.1 mg/kg): 5*
- Number of animals in groups with ventricular arrhythmia ([1]; mouse, in vivo, 0.1 mg/kg): 4*
- Animals with AV blockage (%) ([1]; mouse, in vivo, 0.5 mg/kg): (29%)
- Animals with ventricular arrhythmia (%) ([1]; mouse, in vivo, 0.5 mg/kg): (50%)
- Lifetime ([1]; mouse, in vivo, 0.5 mg/kg): 23 ± 4 min
- Number of animals in groups with AV blockage ([1]; mouse, in vivo, 0.5 mg/kg): 4*
- Number of animals in groups with ventricular arrhythmia ([1]; mouse, in vivo, 0.5 mg/kg): 7*
- Animals died in group ([3]; dose 1.0 mg/kg, intravenously): 0
- Animals with ventricular arrhythmia (%) ([3]; dose 1.0 mg/kg, intravenously): 28%
- Number of animals with ventricular arrhythmia ([3]; dose 1.0 mg/kg, intravenously): 2
- Time of occurrence of arrhythmia ([3]; dose 1.0 mg/kg, intravenously): 24 ± 1 min
